Laboratory results from US11021507B2, “Myricetin derivative and preparing method thereof, and application of same for treating colitis, preventing and treating colitis tumorigenesis, and treating colorectal cancer” (MARINE BIOMEDICAL RESEARCH INSTITUTE OF QINGDAO CO., LTD., priority 2016, dated 2021).
In brackets after ≈: the same amount, converted by molar mass.

How the values were obtained:
[1] = system: dextran sulfate sodium (DSS)-induced chronic colitis in mice; test: DSS-induced chronic colitis model in mice; type: in vivo, C57BL/6 mice; conditions: for Diarrhea (general symptoms) during drug administration / Number of mice with no obvious diarrhea: 100 mg/kg daily, six mice per group; for Diarrhea (general symptoms) during drug administration: 18 days; for Grading scores for chronic inflammation of colon: number of mice colons with score + / Grading scores for chronic inflammation of colon: number of mice colons with score ++ / Grading scores for chronic inflammation of colon: number of mice colons with score 0: 3 mice examined per group, HE staining; for Grading scores for chronic inflammation of colon: number of mice colons with score +: + = slight inflammatory cell infiltration; for Grading scores for chronic inflammation of colon: number of mice colons with score ++: ++ = moderate inflammatory cell infiltration; for Grading scores for chronic inflammation of colon: number of mice colons with score 0: score 0 = no obvious inflammatory cell infiltration; for Colon length compared with model group / Body weight compared with model group: P<0.05; for Body weight compared with model group: FIG. 11
From the text: Determination of the therapeutic effects of myricetin derivative M5, M6 and M7 on dextran sulfate sodium (DSS)-induced chronic colitis in mice
1. Compounds tested and control drugs: myricetin derivative M5, M6 and M7, positive control drug-sulfasalazine (SASP, from Sigma); control drug-myricetin;
Experimental animals: C57BL/6 mice, 20 to 22 g, both male and female, SPF grade provided by Charles River Laboratories, Beijing.
2. DSS-induced chronic colitis model in mice: 36 C57BL/6 mice were randomly divided into six groups, with six mice in each group. DSS (0.5 g) was weighed and dissolved in 50 ml of purified water, for 6 mice to drink in one day. The DSS water was made freshly and was provided at fixed time on a daily basis for 7 days successively, which was then replaced by freshly-made purified drinking water for the next successive 14 days. The same procedure was repeated successively for 3 times. Each group of mice was given the same treatment for the preparation of chronic colitis model. 3. Drug preparation method: 3.1 Solvent control group: 0.5 mL of DMSO was added to 10 mL of 0.5% CMC-Na. 3.2 Myricetin derivative M5 and M6 tested: 100 mg of M5 and M6 each was weighed and dissolved in 0.5 ml of DMSO, and diluted to 10 mL with 0.5% CMC-Na. 3.3 Myricetin derivative M7 tested: 100 mg of M7 was weighed and dissolved in 10 mL of 5% sodium bicarbonate injection. 3.4 Myricetin control: 100 mg of myricetin was weighed and dissolved in 10 mL of 0.5% CMC-Na. 3.5 Sulfasalazine (SASP): 100 mg of SASP was weighed and dissolved in 10 mL of saline. 4. Administration method: the body weight of mice was weighed daily, and drugs were administered 0.01 ml/g (100 mg/kg) consecutively for 18 days. 5. Animal observation and treatment method: body weight, diet, diarrhea (or bloody stools) etc. were observed daily. At the end of the experiment, mice were sacrificed for dissection. The colon and small intestine were dissected out for visual observation and pathological analysis. Pathological examination methods and evaluation criteria: the colons of each group were fixed with 10% formalin followed by routine paraffin embedding, sectioning and HE staining. The degree of colonic inflammation in each group was evaluated under microscope. According to the degree of inflammatory cell infiltration in colonic lamina propria, the following grading criteria were established: level 0, no obvious inflammatory cell infiltration; +(level 1), slight inflammatory cell infiltration; ++(level 2), moderate inflammatory cell infiltration; +++(level 3), severe inflammatory cell infiltration and may be accompanied by necrosis or loss of mucosal cells.
Determination of Therapeutic Effects of Myricetin Derivative M13 and M14 on DSS-Induced Chronic Colitis in Mice
See Example 8 for the experimental method.

[2] = system: mouse peritoneal macrophage RAW264.7; test: Cytotoxicity / cell proliferation in RAW264.7 macrophages; type: cell-based; conditions: incubated 24 hours; dose increased to 20 μM
From the text: Therefore, this series of compounds may be considered suitable for drug development for treating chronic colitis and inflammatory bowel disease.

[3] = Water solubility test (equilibrium solubility in pure water, LC/MS); type: physicochemical; conditions: 37° C.; for solubility at 24 h: ultrapure water, thermodynamic from solid
Method: Water solubility test for myricetin derivative M5, M6 and M10
Instrument: Waters Alliance e2695 LC/MS; chromatographic column: Waters×Bridge C18 4.6×150 mm.
Appropriate amount of said myricetin derivative was weighed and dissolved in methanol to prepare a solution of 1 mg/ml respectively, which was diluted with methanol to different concentrations of working solution as standard samples for testing.
2. 1 mL of ultrapure water was added into a 1.5 ml transparent EP tube. Appropriate amount of said myricetin derivative was each added into a transparent EP tube, followed by vortex mixation and ultrasonication till the drug was no longer dissolved (the solution appeared cloudy or had suspended particles). The mixture was then placed in an incubating oscillator for shaking at the temperature of (37±1) ° C., 100 r/min, for 24 hours, to achieve a sufficient solubility balance. 24 hours later, the saturated solution was taken out for centrifugation at 3000 r/min for 15 min. The supernatant was immediately filtered through a 0.45 μm microporous membrane, and the initial part of the filtrate was discarded. Samples were added for chromatography. The peak area was measured and the equilibrium solubility of each compound in pure water was calculated using a standard curve.

[4] = system: azomethane (AOM)/dextran sulfate sodium (DSS)-induced chronic ulcerative colitis and inflammation-associated tumorigenesis; test: AOM/DSS-induced chronic ulcerative colitis and inflammation-associated tumorigenesis in mice; type: in vivo, C57BL/6 mice; conditions: 100 mg/kg aspirin or myricetin; M10 25-100 mg/kg; 12 weeks; FIG. 8
From the text: Determination of therapeutic effect of myricetin derivative M10 on azomethane (AOM)/dextran sulfate sodium (DSS)-induced chronic ulcerative colitis and inflammation-associated tumorigenesis.
Compound tested and control drugs: myricetin derivative M10, control compound myricetin, aspirin (Sigma).
Experimental animals: C57BL/6 mice, 20 to 22 g, both male and female, SPF grade provided by Beijing Vital Lihua Experimental Animal Company, and mice were fed with standard animal feed.
Animal models of AOM/DSS-induced chronic colitis and inflammation-associated tumorigenesis: 48 C57BL/6 mice were randomly divided into six groups with eight mice in each group, including model group, for which 0.5% CMC-Na was administered intragastrically every day; aspirin group, for which 100 mg/kg of aspirin (dissolved in 0.5% CMC-Na) was administered intragastrically; myricetin control group, for which 100 mg/kg of myricetin (dissolved in 0.5% CMCNa) was administered intragastrically; M10 high dose group, for which 100 mg/kg of M10 (dissolved in pure water) was administered intragastrically; M10 medium dose group, for which 50 mg/kg of M10 (dissolved in pure water) was administered intragastrically; M10 low dose group, for which 25 mg/kg of M10 (dissolved in pure water) was administered intragastrically.
Preparation of chronic ulcerative colitis mice model: said groups of mice were intraperitoneally injected with 10 mg/kg of azoxymethane (AOM) on day one. Purified drinking water containing 2% dextran sulfate sodium (DSS) was freshly made and provided on day one and on the next six consecutive days, the replaced by purified drinking water for the next seven consecutive days. The above procedure was then repeated for 3 more times.
M10-treated group: 200 mg of M10 was weighed and dissolved in 10 mL of 0.5% CMC-Na solution (20 mg/mL), and consecutively diluted 2 times and 5 times for future use. 0.2 mL of each prepared solutions was given intragastrically to mice (the body weight was assumed as 20 g per mouse), namely divided into high, medium or small dose groups. Myricetin control group: 200 mg of myricetin was weighed and dissolved in 10 mL of 0.5% CMC-Na. Aspirin-treated group: 200 mg of aspirin was weighed and dissolved in 10 mL of 0.5% CMC-Na. Administration method: The body weight of mice was measured daily, and drugs were administered at 0.01 mL/g (100 mg/kg) per day for 12 consecutive weeks. 4. Animal observation and treatment methods: weight, diet, diarrhea (or bloody stools) etc. were observed daily.
At the end of the experiment, mice were sacrificed. The colon and small intestine were dissected out for visual observation and pathological analysis. Pathological examination methods and evaluation criteria: the mice colons of each group were fixed with 10% formalin, followed by routine paraffin embedding, sectioning and HE staining. The developmental degree of colonic inflammation and colon cancer in each group of mice was evaluated under microscopic observation.

[5] = 100 mg/kg for 18 days, end of experiment, FIG. 2
[6] = Example 17, method of Example 8
[7] = Example 17, method of Example 8, FIG. 12

## O=C(O)c1cc(/N=N/c2ccc(S(=O)(=O)Nc3ccccn3)cc2)ccc1O [SASP, sulfasalazine, reference compound]
[1]
  Diarrhea (general symptoms) during drug administration: slight reduction in diarrhea
[1]; 100 mg/kg for 18 days
  Grading scores for chronic inflammation of colon: number of mice colons with score +: 1
  Grading scores for chronic inflammation of colon: number of mice colons with score ++: 2

## CC(=O)OC[C@H]1O[C@@H](O[C@H]2[C@H](OC(C)=O)[C@@H](OC(C)=O)[C@H](Oc3c(-c4cc(OCc5ccccc5)c(OCc5ccccc5)c(OCc5ccccc5)c4)oc4cc(OCc5ccccc5)cc(O)c4c3=O)O[C@@H]2COC(C)=O)[C@H](OC(C)=O)[C@@H](OC(C)=O)[C@H]1OC(C)=O [M5]
[1]
  Diarrhea (general symptoms) during drug administration: no significant reduction in diarrhea
[1]; 100 mg/kg for 18 days
  Grading scores for chronic inflammation of colon: number of mice colons with score +: 1
  Grading scores for chronic inflammation of colon: number of mice colons with score ++: 2
[2]
  Inhibitory effect on cell proliferation (cytotoxic effect): no significant inhibitory effect
[3]; 24 h, per Table 2
  Solubility (in words): very low
[3]
  solubility at 24 h: < 0.1 µg/mL

## CC(=O)OC[C@H]1O[C@@H](O[C@H]2[C@H](OC(C)=O)[C@@H](OC(C)=O)[C@H](Oc3c(-c4cc(O)c(O)c(O)c4)oc4cc(O)cc(O)c4c3=O)O[C@@H]2COC(C)=O)[C@H](OC(C)=O)[C@@H](OC(C)=O)[C@H]1OC(C)=O [M6]
[1]
  Diarrhea (general symptoms) during drug administration: slight reduction in diarrhea
  Number of mice with no obvious diarrhea: 1-2 mice
[1]; 100 mg/kg for 18 days
  Grading scores for chronic inflammation of colon: number of mice colons with score +: 2
  Grading scores for chronic inflammation of colon: number of mice colons with score 0: 1
[1]; [5]
  Colon length compared with model group: significantly longer
[2]
  Inhibitory effect on cell proliferation (cytotoxic effect): no significant inhibitory effect
[3]
  solubility at 24 h: 1.4 µg/mL (≈ 1.49 µM)

## O=c1c(O[C@@H]2O[C@H](CO[C@@H]3O[C@H](CO)[C@@H](O)[C@H]3O)[C@H](O)[C@H](O)[C@H]2O)c(-c2cc(O)c(O)c(O)c2)oc2cc(O)cc(O)c12 [M13]
[1]; [6]
  Body weight compared with model group: significantly increased
[1]; [7]
  Colon length compared with model group: significantly increased

## O=c1c(O[C@@H]2O[C@H](CO[C@@H]3O[C@H](CO)[C@@H](O)[C@H](O)[C@@H]3O)[C@H](O)[C@H](O)[C@H]2O)c(-c2cc(O)c(O)c(O)c2)oc2cc(O)cc(O)c12 [M14]
[1]; [6]
  Body weight compared with model group: significantly increased
[1]; [7]
  Colon length compared with model group: significantly increased

## O=c1c(O[C@@H]2O[C@H](CO)[C@@H](O[C@@H]3O[C@H](CO)[C@H](O)[C@H](O)[C@H]3O)[C@H](O)[C@H]2O)c(-c2cc(O)c(O)c(O)c2)oc2cc(O)cc(O)c12 [M7]
[1]
  Diarrhea (general symptoms) during drug administration: significant reduction in diarrhea
  Number of mice with no obvious diarrhea: 4 mice
[1]; 100 mg/kg for 18 days
  Grading scores for chronic inflammation of colon: number of mice colons with score 0: 3
[1]; 100 mg/kg for 18 days, FIG. 3 and Table 1
  Degree of chronic colonic inflammation (pathological examination): significantly alleviated
[1]; [5]
  Colon length compared with model group: significantly longer
[2]
  Inhibitory effect on cell proliferation (cytotoxic effect): no significant inhibitory effect

## CC(=O)Oc1ccccc1C(=O)O [aspirin, reference compound]
[4]
  Pathological analysis of colon tissue (colon cancer): alleviated to some extent
